Test results taken from patent US20250162973A1, “METHODS OF SYNTHESIS AND USES OF AGRIMOL COMPOUNDS” (Versitech Limited, priority 2022, published 2025).

What was measured:
[1] = molecular target: T1, CS (Homo sapiens, UniProt O75390); experiment: CS catalytic activity; assay type: biochemical; conditions: dose-dependent
T1 sequence (O75390 28-466): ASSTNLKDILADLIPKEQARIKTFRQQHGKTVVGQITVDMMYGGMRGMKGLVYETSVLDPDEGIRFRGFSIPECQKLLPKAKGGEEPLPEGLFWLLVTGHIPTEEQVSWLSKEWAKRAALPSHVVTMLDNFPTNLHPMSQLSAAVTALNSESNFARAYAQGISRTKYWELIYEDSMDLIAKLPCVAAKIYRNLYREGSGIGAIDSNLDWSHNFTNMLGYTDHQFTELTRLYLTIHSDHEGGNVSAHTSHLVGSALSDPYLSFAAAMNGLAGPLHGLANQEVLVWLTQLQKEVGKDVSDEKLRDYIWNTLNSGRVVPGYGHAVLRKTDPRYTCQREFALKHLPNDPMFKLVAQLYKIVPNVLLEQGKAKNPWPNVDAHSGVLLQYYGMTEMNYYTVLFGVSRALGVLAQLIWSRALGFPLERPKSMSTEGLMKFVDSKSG
Source text: CS is localized within the mitochondrial matrix and is the key enzyme in the first step of the tricarboxylic acid (TCA) cycle that catalyzes the reaction between acetyl coenzyme A (acetyl CoA) and oxaloacetic acid to form citric acid. […] CS is responsible for the production of citrate in the TCA cycle that mediates mitochondrial aerobic respiration to affect the production of ATP production. Targeting at CS may be feasible to restore the abnormal expression of TCA cycle.

[2] = test system: A549 xenograft; experiment: Human tumor xenograft model; assay type: in vivo, nude mice; conditions: AGB 3 mg/kg, tail intravenous injection
[3] = molecular target: HSP60 (Homo sapiens, UniProt P10809); experiment: MDH refolding assay (chaperone function); assay type: biochemical; conditions: pre-incubation of Hsp60 with AGB
Source text: The function of HSP60 is mainly for its chaperone activity. HSP60 cooperates with co-chaperonin HSP10 to perform the misfolded proteins refolding and reactivate. Mitochondrial malate dehydrogenase (MDH), one of HSP60 substrates, was examined for the inhibition of chaperone function by AGB.

[4] = test system: patient-derived organoids (PDOs) from a lung cancer patient's metastatic tumor; experiment: Patient-derived organoid viability (CellTiter Glo); assay type: cell-based, human; design: viability of PDO: dose or concentration left out as unconfirmed; conditions: 72 h
Method: FIG. 1A is a bar graph showing the IC50 values of AGB against indicated cell lines. Cells were treated with AGB at various concentrations for 48 h and processed for MTT assay. The IC50 values were half maximal inhibitory concentration that determined by the fitting curve using the equation from GraphPad Prism 8. FIG. 1B is a bar graph showing the inhibition of colony formation on NCI-H460 cells by AGB. Cells were treated with indicated concentrations of AGB for 8 h. Medium with AGB was then aspirated and cells were re-seeded into a new 12-well cell culture plate. After 14 days, cells were fixed by ethanol followed by staining using crystal violet. Colony numbers were counted and normalized to vehicle control group. Colonies with more than 50 cells were considered. **, p<0.01; ***, p<0.001. […] The numbers of formed tumorsphere were calculated and normalized to the control group of primary passage. […] FIG. 1E is a graph showing the cell viability of CSCs determined by MTT assay. The absorbance of each well was normalized to control wells and data were shown as percentage of cell viabilities. […]
To better simulate the physiological structure and function of in situ tissue, the effect of AGB on the growth of patient-derived organoids (PDOs) isolated from a lung cancer patient's metastatic tumor was evaluated.

[5] = test system: NCI-H460 xenograft; experiment: Human tumor xenograft model; assay type: in vivo, BALB/c nude mice; conditions: AGB 3 mg/kg, tail intravenous injection
Method: In vivo anticancer efficacy of AGB was evaluated using the human tumor xenograft model, in which human cancer cells were inoculated into immune-deficiency mice. Briefly, twelve six-week-old (16-18 g) BALB/c nude mice were randomly divided into two groups and both received subcutaneous injection of NCI-H460 cells (2 million cells in 0.1 mL PBS) at its right flank of mice and tumor became palpable after three days of injection. Mice were received intravenous (i.v.) injections of AGB or vehicle control (10% DMSO and 0.05% Tween 80 in normal saline) every two days in two weeks. The length and width of tumor were measured by Vernier caliper and the body weight was monitored every two or three days. At the end of experiment, mice were sacrificed and decapitated. The liver, kidney, and tumor were collected and fixed in 4% formaldehyde for further haematoxylin and eosin (H&E) staining. All animal experiments in this project received human care and study protocols complied with the guidelines of the Laboratory Animal Services Centre of the University of Hong Kong. Tumor sizes and body weight were recorded before the drug injection every time and tumor volume (V) was calculated by the formula V=LW^2/2, where L is tumor length and W is tumor width. […]
The in vivo antitumor potential of AGB using the xenograft mouse model was assessed. […]

[6] = test system: NCI-H460 cells; experiment: Cell colony formation (clonogenic) assay; assay type: cell-based, human
Method: For the colony formation assay, cells were treated with indicated concentrations of AGB for 8 h, then AGB was then removed and 200 cells were trypsinized and seeded into a new 12-well cell culture plate containing 1.5 ml of complete cell growth medium. After cells were grown for 14 days, cells were then fixed with ethanol followed a staining by crystal violet (0.05%, w/v, in water) for 15 min. The cell colonies were captured under the microscope and the number of colonies was calculated by ImageJ (version 1.50i, NIH, USA, internet site imagej.nih.gov).

Chain of HSP60 (P10809 27-573): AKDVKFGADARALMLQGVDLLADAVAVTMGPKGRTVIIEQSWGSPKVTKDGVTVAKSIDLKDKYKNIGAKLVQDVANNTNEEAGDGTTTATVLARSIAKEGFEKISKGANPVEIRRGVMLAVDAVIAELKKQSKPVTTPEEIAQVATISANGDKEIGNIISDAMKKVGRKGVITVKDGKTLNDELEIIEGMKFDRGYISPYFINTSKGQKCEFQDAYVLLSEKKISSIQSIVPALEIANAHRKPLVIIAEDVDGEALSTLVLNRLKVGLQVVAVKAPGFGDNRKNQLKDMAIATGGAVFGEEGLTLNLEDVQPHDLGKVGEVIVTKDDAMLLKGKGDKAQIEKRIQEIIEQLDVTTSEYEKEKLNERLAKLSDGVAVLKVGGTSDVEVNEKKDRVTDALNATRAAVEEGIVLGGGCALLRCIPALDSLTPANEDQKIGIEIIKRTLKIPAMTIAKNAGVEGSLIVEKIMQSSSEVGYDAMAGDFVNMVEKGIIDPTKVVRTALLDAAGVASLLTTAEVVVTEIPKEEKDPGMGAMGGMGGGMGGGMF

## CCCC(=O)c1c(O)c(Cc2c(O)c(Cc3c(O)c(C)c(OC)c(C(=O)CCC)c3O)c(O)c(C(=O)[C@@H](C)CC)c2O)c(O)c(C)c1OC [AGB, Agrimol B]
[1]
  AGB concentration at which a significant decrease in the enzyme activity was observed: 5 µM
[2]
  tumor growth inhibition rate: 60%
[3]
  MDH refolding activities: concentration-dependent inhibition
[4]; AGB, concentration dependent
  viability of PDO: Significant inhibition of viability
[4]; PDO
  maximal viability loss: over 99%
[5]
  tumor growth inhibition rate: 57%
[6]; 8 h treatment, colonies counted after two weeks
  AGB concentration over which colonies numbers were significantly reduced: over 2.5 μM
[6]; clonogenicity assay
  concentration giving significant reduction of cell colony formation: around 4 μM
